Measured values taken from PubChem BioAssay (NCI).
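Cells were grown in 96-well plates and exposed to each compound for 48 hours at five concentrations; endpoints were interpolated linearly between bracketing concentrations, or set to the highest concentration if not reached. At the GI50, growth is halved. TGI marks complete inhibition of growth.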

Legend:
Experiment in all cases: NCI-60 cell line screen, 48 h
[1] = tested on: CCRF-CEM leukemia
[2] = tested on: COLO 205 colon
[3] = tested on: HCC-2998 colon
[4] = tested on: K-562 leukemia
[5] = tested on: OVCAR-4 ovarian
[6] = tested on: OVCAR-5 ovarian
[7] = tested on: SK-MEL-28 melanoma
[8] = tested on: SW-620 colon
[9] = tested on: UO-31 renal
[10] = tested on: HCT-15 colon

Compound	TGI [1] [µM]	TGI [2] [µM]	TGI [3] [µM]	TGI [4] [µM]	TGI [5] [µM]	TGI [6] [µM]	TGI [7] [µM]	TGI [8] [µM]	TGI [9] [µM]	GI50 [1] [µM]	GI50 [2] [µM]	GI50 [3] [µM]	GI50 [10] [µM]	TGI [10] [µM]	GI50 [4] [nM]	GI50 [5] [µM]	GI50 [6] [µM]	GI50 [7] [µM]	GI50 [9] [µM]	GI50 [8] [µM]
O=C(O)C[C@H]1CCCCC12CCOC2=O (some centres not stated)	> 100	> 100	> 100	> 100	> 100	> 100	> 100	> 100	> 100											
Cc1ccc2ncnc(N(CC(C)C)CC(C)C)c2c1	41.7	39.1	35.7	21.7	52.6	43.7	42.6		> 100	6.55	16.9	16.2	17.9	34.6	3690	19	20.1	19.9	22.2	
COc1ccc(C(=O)c2cc(OC)c(OC)c(OC)c2)cc1/C=C/C(=O)c1ccc(OC)c(OC)c1	13.3	> 100	> 100	> 100	> 100	> 100	> 100	> 100		0.465	3.07	4.14	0.428	> 100	400	1.95	3.67	4.59		0.321
Cc1cccc2c1N(C(=O)/C=C\C(=O)O)C(c1c(C)[nH]c3ccccc13)C2 (configuration not stated)	78.2	> 10	33.9	> 100	> 100	> 100	53.3	79.3	> 100											
OCC(O)C(O)C(O)c1nn(-c2ccc(Cl)cc2)c2nc3cc(Cl)c(Cl)cc3nc12 (configuration not stated)	> 100	> 100	> 100	> 100	> 100	> 100	> 100	> 100	> 100											
O=C1Nc2c(C(F)(F)F)cccc2[C@@]1(c1ccc(O)cc1)c1ccc(OC(F)(F)F)cc1	45.9	< 0.01	0.0131	20.7	< 0.01	16	27.7	28.6	0.028	14.5	< 0.01	< 0.01			183	< 0.01	0.0333	13.3	0.0143	14.1
O=C1c2ccccc2C(=O)N1CCN(CCN1C(=O)c2ccccc2C1=O)Cn1cccn1	> 100	> 100	> 100	> 100	> 100		> 100	> 100	> 100					> 100						
O=C(c1ccccc1)N1C2CCC1C(C(F)(F)F)=C2C(F)(F)F	> 100	> 100	> 100	> 100	> 100	> 100		> 100	> 100					> 100						
COc1c(C(=O)c2ccc([N+](=O)[O-])cc2)cc(C(C)(C)C)cc1C(C)(C)C	97.5		66.9	> 100	> 100	> 100	72.8	> 100	> 100					> 100						
N#Cc1ccccc1NC(=O)C(=O)c1c(O)c2ccccc2oc1=O	> 100		> 100	> 100	> 100	> 100	> 100	> 100	> 100					> 100						
Cc1cc2c(cc1C)[n+](=O)c(C(=O)C/C(=N/OCCCc1ccccc1)C(=O)Nc1cc(Cl)ccc1Cl)c(C)n2[O-]	> 100	> 100	> 100	> 100	> 100	> 100	> 100	> 100						> 100						
O=C1c2ccccc2S(=O)(=O)N1CSC(=S)N1CCCCC1		> 100	> 100	> 100	> 100	> 100	> 100	> 100	> 100		> 100	> 100	> 100	> 100	> 94600	> 100	> 100	> 100	> 100	> 100
N#Cc1c2c(c(N=P(c3ccccc3)(c3ccccc3)c3ccccc3)n3c1nc1ccccc13)CCCC2	57.7	24.8	> 100	38.2	> 100		> 100	> 100	79.4					> 100						
COC(=O)C(C(=O)C(=O)Nc1nc(=S)[nH][nH]1)c1csc(-n2nc(-c3ccccc3)cc2-c2ccccc2)n1 (configuration not stated)	> 100	> 100	> 100	> 100	> 100	> 100		> 100	> 100					> 100						
